# Patent US20250320213A1, “Nitrogen-Containing Heterocyclic Compounds” (Pfizer Inc., priority 2024, published 2025)
# Legend:
# [1] = tested on: CCL17 secretion in peripheral human whole blood; experiment: Human Whole Blood (HWB) CCL17 TR-FRET Assay (IL-13 stimulated CCL17 secretion); assay type: cell-based; conditions: Homo sapiens, 48 h, inhibition of CCL17 secretion in human whole blood, 10 ng/mL IL13, 48 hours
# How it was run: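 Compounds are titrated (11 points, 3-fold, duplicate) into fresh heparinized human whole blood and held 2 h at 37 °C before IL-13 challenge (10 ng/mL final). After 48 h at 37 °C, serum CCL17 is measured by TR-FRET sandwich assay and IC50 values are calculated.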
# STAT6 = biological target: T1, STAT6 (Homo sapiens, UniProt P42226); experiment: STAT6 Reporter Luciferase Assay (IL-13 stimulated HaCaT keratinocyte NanoLuc reporter cells); assay type: cell-based; conditions: STAT6 NanoLuc luciferase reporter, IL-13 stimulated HaCaT keratinocyte cells; read-out: Reporter EC50
# T1 construct: stably transfected HaCaT keratinocyte cell line, which expresses NanoLuc luciferase reporter gene under the transcriptional control of the STAT6 responsive promoter; endogenous in cells; host or cells: HaCaT keratinocyte reporter cell line (stably transfected with a NanoLuc reporter)
# T1 sequence (P42226 1-847): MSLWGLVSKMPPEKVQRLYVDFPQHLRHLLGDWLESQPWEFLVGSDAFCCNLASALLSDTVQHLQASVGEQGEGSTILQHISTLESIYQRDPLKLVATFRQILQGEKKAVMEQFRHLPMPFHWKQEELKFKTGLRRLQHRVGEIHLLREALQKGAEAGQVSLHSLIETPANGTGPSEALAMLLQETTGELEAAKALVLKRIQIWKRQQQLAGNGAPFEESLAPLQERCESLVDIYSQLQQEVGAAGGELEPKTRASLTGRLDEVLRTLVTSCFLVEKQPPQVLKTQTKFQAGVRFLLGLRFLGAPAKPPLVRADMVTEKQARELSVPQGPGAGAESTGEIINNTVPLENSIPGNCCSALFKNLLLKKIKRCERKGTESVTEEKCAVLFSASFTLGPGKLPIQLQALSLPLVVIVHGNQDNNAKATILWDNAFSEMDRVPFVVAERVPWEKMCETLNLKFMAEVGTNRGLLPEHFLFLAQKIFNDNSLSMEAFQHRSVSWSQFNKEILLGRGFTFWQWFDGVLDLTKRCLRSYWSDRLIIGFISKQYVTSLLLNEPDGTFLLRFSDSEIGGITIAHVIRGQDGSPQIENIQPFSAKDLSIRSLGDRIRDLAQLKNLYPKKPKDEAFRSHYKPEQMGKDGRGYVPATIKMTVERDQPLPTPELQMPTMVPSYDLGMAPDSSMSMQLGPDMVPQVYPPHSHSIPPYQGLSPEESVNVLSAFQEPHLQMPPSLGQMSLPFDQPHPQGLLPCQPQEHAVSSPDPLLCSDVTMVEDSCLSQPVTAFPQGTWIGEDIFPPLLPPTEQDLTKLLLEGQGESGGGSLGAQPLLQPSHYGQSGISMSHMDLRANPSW
# How it was run: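 Stably transfected HaCaT cells carrying NanoLuc under the STAT6-responsive IL-13Ra2 promoter were pre-treated with compound (11-point, 4-fold series, duplicate) for 2 h at 37 °C, then stimulated with 0.12 nM IL-13 for 4 h. Nano-Glo luminescence was read after 15 min.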
IC50 [1] [nM],EC50 (STAT6) [nM],SMILES
324,38,"CC(C)n1nc(C(=O)NCc2ccc(-c3nnc[nH]3)cc2)c2c1CCN(c1ccc(C(=O)N(C)C)cn1)C2 [Example 40, N-(4-(4H-1,2,4-triazol-3-yl)benzyl)-5-(5-(dimethylcarbamoyl)pyridin-2-yl)-1-isopropyl-4,5,6,7-tetrahydro-1H-pyrazolo[4,3-c]pyridine-3-carboxamide]"
93,3,"Cc1ccnn1-c1ccc(N2CCc3c(c(C(=O)NCc4ccc(NC(=O)N(C)C)cc4)nn3C(C)C)C2)nc1 [Example 41, N-(4-(3,3-Dimethylureido)benzyl)-1-isopropyl-5-(5-(5-methyl-1H-pyrazol-1-yl)pyridin-2-yl)-4,5,6,7-tetrahydro-1H-pyrazolo[4,3-c]pyridine-3-carboxamide]"
136,10,"CN(C)C(=O)Nc1ccc(CNC(=O)c2nc(C(F)(F)F)n3c2CN(c2ccc(-c4nccn4C)cn2)CC3)cc1 [Example 42, N-(4-(3,3-Dimethylureido)benzyl)-7-(5-(1-methyl-1H-imidazol-2-yl)pyridin-2-yl)-3-(trifluoromethyl)-5,6,7,8-tetrahydroimidazo[1,5-a]pyrazine-1-carboxamide]"
1300,286,"CC(C)n1nc(C(=O)NCc2ccc(-c3nccc(=O)[nH]3)cc2)c2c1CCN(c1ccc(C(=O)N(C)C)cn1)C2 [Example 43, 5-(5-(Dimethylcarbamoyl)pyridin-2-yl)-1-isopropyl-N-(4-(6-oxo-1,6-dihydropyrimidin-2-yl)benzyl)-4,5,6,7-tetrahydro-1H-pyrazolo[4,3-c]pyridine-3-carboxamide]"
5400,503,"CC(C)n1nc(C(=O)NCc2ccc(-c3cccc(=O)[nH]3)cc2)c2c1CCN(c1ccc(C(=O)N(C)C)cn1)C2 [Example 44, 5-(5-(dimethylcarbamoyl)pyridin-2-yl)-1-isopropyl-N-(4-(6-oxo-1,6-dihydropyridin-2-yl)benzyl)-4,5,6,7-tetrahydro-1H-pyrazolo[4,3-c]pyridine-3-carboxamide]"
50,4,"CC(C)n1nc(C(=O)NCc2ccc(NC(=O)N(C)C)cc2)c2c1CCN(c1ccc(-c3nccn3C)cn1)C2 [Example 45, N-(4-(3,3-Dimethylureido)benzyl)-1-isopropyl-5-(5-(1-methyl-1H-imidazol-2-yl)pyridin-2-yl)-4,5,6,7-tetrahydro-1H-pyrazolo[4,3-c]pyridine-3-carboxamide]"
110,9,"CN(C)C(=O)Nc1ccc(CNC(=O)c2nn(C3CC3)c3c2CN(c2ccc(-c4nccn4C)cn2)CC3)cc1 [Example 46, 1-cyclopropyl-N-(4-(3,3-dimethylureido)benzyl)-5-(5-(1-methyl-1H-imidazol-2-yl)pyridin-2-yl)-4,5,6,7-tetrahydro-1H-pyrazolo[4,3-c]pyridine-3-carboxamide]"
> 30000,1180,"Cc1ccn(-c2ccc(N3CCc4c(c(C(=O)NCc5ccc(NC(=O)N(C)C)cc5)nn4C(C)C)C3)nc2)n1 [Example 47, N-(4-(3,3-dimethylureido)benzyl)-1-isopropyl-5-(5-(3-methyl-1H-pyrazol-1-yl)pyridin-2-yl)-4,5,6,7-tetrahydro-1H-pyrazolo[4,3-c]pyridine-3-carboxamide]"
3960,952,"CNC(=O)c1ccc(CNC(=O)c2csc3c2CN(c2ccc(C(=O)N(C)C)cn2)CC3)cc1 [Example 48, 5-(5-(dimethylcarbamoyl)pyridin-2-yl)-N-(4-(methylcarbamoyl)benzyl)-4,5,6,7-tetrahydrothieno[3,2-c]pyridine-3-carboxamide]"
151,35,"C[C@@H]1Cc2c(c(C(=O)NCc3ccc(NC(=O)N(C)C)cc3)nn2C)CN1c1ccc(C(=O)N(C)C)cn1 [Example 50, (R)-5-(5-(dimethylcarbamoyl)pyridin-2-yl)-N-(4-(3,3-dimethylureido)benzyl)-1,6-dimethyl-4,5,6,7-tetrahydro-1H-pyrazolo[4,3-c]pyridine-3-carboxamide]"
30,4,"C[C@H]1Cc2c(c(C(=O)NCc3ccc(NC(=O)N(C)C)cc3)nn2C)CN1c1ccc(C(=O)N(C)C)cn1 [Example 51, (S)-5-(5-(dimethylcarbamoyl)pyridin-2-yl)-N-(4-(3,3-dimethylureido)benzyl)-1,6-dimethyl-4,5,6,7-tetrahydro-1H-pyrazolo[4,3-c]pyridine-3-carboxamide]"
64,9,"CN(C)C(=O)Nc1ccc(CNC(=O)c2nc(C(C)(F)F)n3c2CN(c2ccc(C(=O)N(C)C)cn2)CC3)cc1 [Example 52, 3-(1,1-difluoroethyl)-7-(5-(dimethylcarbamoyl)pyridin-2-yl)-N-(4-(3,3-dimethylureido)benzyl)-5,6,7,8-tetrahydroimidazo[1,5-a]pyrazine-1-carboxamide]"
369,13,"CC1CCC(=O)N1c1ccc(N2CCc3c(c(C(=O)NCc4ccc(NC(=O)N(C)C)cc4)nn3C(C)C)C2)nc1 (stereo not shown) [Example 56, N-(4-(3,3-dimethylureido)benzyl)-1-isopropyl-5-(5-(2-methyl-5-oxopyrrolidin-1-yl)pyridin-2-yl)-4,5,6,7-tetrahydro-1H-pyrazolo[4,3-c]pyridine-3-carboxamide]"
910,32,"CC(C)n1nc(C(=O)NCc2ccc(NC(=O)N(C)C)cc2)c2c1CCN(c1ccc(N3CCN(C)C3=O)cn1)C2 [Example 60, N-(4-(3,3-dimethylureido)benzyl)-1-isopropyl-5-(5-(3-methyl-2-oxoimidazolidin-1-yl)pyridin-2-yl)-4,5,6,7-tetrahydro-1H-pyrazolo[4,3-c]pyridine-3-carboxamide]"
2590,75,"CC1CCN(c2ccc(N3CCc4c(c(C(=O)NCc5ccc(NC(=O)N(C)C)cc5)nn4C(C)C)C3)nc2)C1=O (stereo not shown) [Example 61, N-(4-(3,3-dimethylureido)benzyl)-1-isopropyl-5-(5-(3-methyl-2-oxopyrrolidin-1-yl)pyridin-2-yl)-4,5,6,7-tetrahydro-1H-pyrazolo[4,3-c]pyridine-3-carboxamide]"
73,4,"CC(C)n1nc(C(=O)NCc2ccc(NC(=O)N(C)C)cc2)c2c1CCN(c1ccc(-n3ccnn3)cn1)C2 [Example 64, 5-(5-(1H-1,2,3-triazol-1-yl)pyridin-2-yl)-N-(4-(3,3-dimethylureido)benzyl)-1-isopropyl-4,5,6,7-tetrahydro-1H-pyrazolo[4,3-c]pyridine-3-carboxamide]"
28100,208,"CC(C)n1nc(C(=O)NCc2ccc(NC(=O)N(C)C)cc2)c2c1CCN(c1ccc(N3CCC4(CC4)C3=O)cn1)C2 [Example 65, N-(4-(3,3-dimethylureido)benzyl)-1-isopropyl-5-(5-(4-oxo-5-azaspiro[2.4]heptan-5-yl)pyridin-2-yl)-4,5,6,7-tetrahydro-1H-pyrazolo[4,3-c]pyridine-3-carboxamide]"
89,13,"CC(C)n1nc(C(=O)NCc2ccc(NC(=O)N(C)C)cc2)c2c1CCN(c1ccc(N3C[C@@H](C)CC3=O)cn1)C2 [Example 66, (S)-N-(4-(3,3-dimethylureido)benzyl)-1-isopropyl-5-(5-(4-methyl-2-oxopyrrolidin-1-yl)pyridin-2-yl)-4,5,6,7-tetrahydro-1H-pyrazolo[4,3-c]pyridine-3-carboxamide]"
5020,64,"CC(C)n1nc(C(=O)NCc2ccc(NC(=O)N(C)C)cc2)c2c1CCN(c1ccc(N3C[C@H](C)CC3=O)cn1)C2 [Example 67, (R)-N-(4-(3,3-dimethylureido)benzyl)-1-isopropyl-5-(5-(4-methyl-2-oxopyrrolidin-1-yl)pyridin-2-yl)-4,5,6,7-tetrahydro-1H-pyrazolo[4,3-c]pyridine-3-carboxamide]"
8110,1070,"CC(C)n1nc(C(=O)NCc2ccc(NC(=O)N(C)C)cc2)c2c1CCN(c1ccc(N3C(=O)CC[C@H]3CO)cn1)C2 [Example 69, (S)-N-(4-(3,3-dimethylureido)benzyl)-5-(5-(2-(hydroxymethyl)-5-oxopyrrolidin-1-yl)pyridin-2-yl)-1-isopropyl-4,5,6,7-tetrahydro-1H-pyrazolo[4,3-c]pyridine-3-carboxamide]"
